Experimental data taken from ChEMBL document CHEMBL3817754, “Synthesis and evaluation of donepezilferulic acid hybrids as multi-target-directed ligands against Alzheimer's disease” (Medchemcomm, 2016).
The source made the active and inactive calls. The calls are words filed in the database; no cut-off is given here.

How the values were obtained:
[1] = target: Cholinesterase (Homo sapiens, UniProt P06276); experiment: Inhibition of human serum butyrylcholinesterase preincubated for 5 mins followed by addition of S-butyrylthiocholine iodide as substrate measured after 60 to 120 mins by Ellmans method
[2] = DPPH radical solution, 30 min
Description: Antioxidant activity assessed as DPPH radical scavenging activity incubated in dark for 30 mins by spectrophotometry

[3] = target: Acetylcholinesterase (Homo sapiens, UniProt P22303); experiment: Inhibition of human erythrocytes acetylcholinesterase preincubated for 5 mins followed by addition of acetylthiocholine iodide as substrate measured after 60 to 120 mins by Ellmans method
[4] = species on record: Homo sapiens; experiment: Selectivity index, ratio of IC50 for human serum butyrylcholinesterase to IC50 for human erythrocytes acetylcholinesterase
[5] = Selectivity index, ratio of IC50 for equine serum butyrylcholinesterase to IC50 for electric eel acetylcholinesterase
[6] = target: Cholinesterase (Equus caballus, UniProt P81908); experiment: Inhibition of equine serum butyrylcholinesterase preincubated for 5 mins followed by addition of S-butyrylthiocholine iodide as substrate measured after 60 to 120 mins by Ellmans method
[7] = Cytotoxicity against […] PC12 cells assessed as cell viability at 20 uM after 24 hrs by MTT assay; format: cell-based; settings: rat, pc-12, 24 h
[8] = target: Acetylcholinesterase (Electrophorus electricus, UniProt O42275); experiment: Inhibition of electric eel acetylcholinesterase preincubated for 5 mins followed by addition of acetylthiocholine iodide as substrate measured after 60 to 120 mins by Ellmans method
[9] = system: PC-12; experiment: Neuroprotective activity against H2O2 induced damage in […] PC12 cells assessed as cell viability at 1 to 10 uM preincubated for 4 hrs followed by H2O2 challenge for 20 hrs by MTT assay; format: functional, cell-based; settings: Rattus norvegicus
[10] = Metal chelating activity assessed as copper-compound complex formation at 75 uM after 30 mins by UV-vis spectrometry; format: physicochemical; settings: 0.5 h
[11] = Metal chelating activity assessed as zinc-compound complex formation at 75 uM after 30 mins by UV-vis spectrometry; format: physicochemical; settings: 0.5 h
[12] = target: Acetylcholinesterase (Electrophorus electricus) (UniProt O42275); experiment: Mixed-type inhibition of electric eel acetylcholinesterase at 0.2 to 0.8 uM preincubated for 5 mins followed by addition of acetylthiocholine iodide as substrate measured after 60 to 120 mins by Lineweaver-Burk plot analysis
[13] = Metal chelating activity assessed as ferrous-compound complex formation at 75 uM after 30 mins by UV-vis spectrometry; format: physicochemical; settings: 0.5 h
[14] = Metal chelating activity assessed as ferric-compound complex formation at 75 uM after 30 mins by UV-vis spectrometry; format: physicochemical; settings: 0.5 h
[15] = in vitro; settings: PAMPA
[16] = target: Cholinesterase (Equus caballus) (UniProt P81908); experiment: Mixed-type inhibition of equine serum butyrylcholinesterase at 0.5 to 2 uM preincubated for 5 mins followed by addition of S-butyrylthiocholine iodide as substrate measured after 60 to 120 mins by Lineweaver-Burk plot analysis
[17] = Antioxidant activity assessed as DPPH radical scavenging activity at 1000 uM incubated in dark for 30 mins by spectrophotometry; format: physicochemical; settings: 0.5 h
[18] = target: Cholinesterase (Equus caballus) (UniProt P81908); experiment: Inhibition of equine serum butyrylcholinesterase at 1000 uM preincubated for 5 mins followed by addition of S-butyrylthiocholine iodide as substrate measured after 60 to 120 mins by Ellmans method
[19] = target: Acetylcholinesterase (Electrophorus electricus) (UniProt O42275); experiment: Inhibition of electric eel acetylcholinesterase at 1000 uM preincubated for 5 mins followed by addition of acetylthiocholine iodide as substrate measured after 60 to 120 mins by Ellmans method

Acetylcholinesterase (Homo sapiens, UniProt P22303), sequence (P22303 whole entry): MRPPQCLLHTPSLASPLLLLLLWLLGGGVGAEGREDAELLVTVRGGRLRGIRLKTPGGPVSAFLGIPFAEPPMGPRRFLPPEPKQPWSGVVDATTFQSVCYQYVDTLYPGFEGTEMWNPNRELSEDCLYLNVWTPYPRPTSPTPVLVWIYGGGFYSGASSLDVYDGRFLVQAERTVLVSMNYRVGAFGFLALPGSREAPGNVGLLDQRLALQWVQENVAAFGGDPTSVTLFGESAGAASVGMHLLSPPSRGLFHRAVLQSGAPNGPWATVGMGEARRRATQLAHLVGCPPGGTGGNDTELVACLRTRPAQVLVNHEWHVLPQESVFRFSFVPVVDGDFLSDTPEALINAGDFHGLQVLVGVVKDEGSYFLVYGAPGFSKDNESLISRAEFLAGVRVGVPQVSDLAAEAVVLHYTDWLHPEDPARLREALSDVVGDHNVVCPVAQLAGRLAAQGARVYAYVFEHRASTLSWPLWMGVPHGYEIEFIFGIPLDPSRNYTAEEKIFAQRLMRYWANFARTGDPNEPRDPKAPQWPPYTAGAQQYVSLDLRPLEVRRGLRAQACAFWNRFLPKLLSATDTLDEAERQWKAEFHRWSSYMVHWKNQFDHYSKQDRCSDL
Cholinesterase (Homo sapiens, UniProt P06276), sequence (P06276 whole entry): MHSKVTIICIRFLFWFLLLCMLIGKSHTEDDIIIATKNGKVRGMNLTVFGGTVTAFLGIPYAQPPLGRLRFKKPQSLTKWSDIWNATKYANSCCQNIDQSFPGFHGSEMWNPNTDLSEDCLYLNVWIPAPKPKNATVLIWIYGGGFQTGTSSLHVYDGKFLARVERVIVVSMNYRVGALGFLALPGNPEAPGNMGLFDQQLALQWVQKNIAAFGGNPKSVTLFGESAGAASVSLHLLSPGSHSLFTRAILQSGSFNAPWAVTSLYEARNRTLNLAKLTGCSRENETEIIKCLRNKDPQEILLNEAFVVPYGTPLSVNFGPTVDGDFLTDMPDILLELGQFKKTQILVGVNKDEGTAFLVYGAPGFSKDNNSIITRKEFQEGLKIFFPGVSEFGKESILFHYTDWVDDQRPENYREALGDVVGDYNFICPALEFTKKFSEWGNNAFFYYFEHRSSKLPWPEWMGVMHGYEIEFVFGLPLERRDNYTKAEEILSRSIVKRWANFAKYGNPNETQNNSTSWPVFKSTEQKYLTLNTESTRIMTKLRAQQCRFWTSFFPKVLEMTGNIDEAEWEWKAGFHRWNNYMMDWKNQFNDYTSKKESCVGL
Acetylcholinesterase (Electrophorus electricus, UniProt O42275), sequence (O42275 whole entry): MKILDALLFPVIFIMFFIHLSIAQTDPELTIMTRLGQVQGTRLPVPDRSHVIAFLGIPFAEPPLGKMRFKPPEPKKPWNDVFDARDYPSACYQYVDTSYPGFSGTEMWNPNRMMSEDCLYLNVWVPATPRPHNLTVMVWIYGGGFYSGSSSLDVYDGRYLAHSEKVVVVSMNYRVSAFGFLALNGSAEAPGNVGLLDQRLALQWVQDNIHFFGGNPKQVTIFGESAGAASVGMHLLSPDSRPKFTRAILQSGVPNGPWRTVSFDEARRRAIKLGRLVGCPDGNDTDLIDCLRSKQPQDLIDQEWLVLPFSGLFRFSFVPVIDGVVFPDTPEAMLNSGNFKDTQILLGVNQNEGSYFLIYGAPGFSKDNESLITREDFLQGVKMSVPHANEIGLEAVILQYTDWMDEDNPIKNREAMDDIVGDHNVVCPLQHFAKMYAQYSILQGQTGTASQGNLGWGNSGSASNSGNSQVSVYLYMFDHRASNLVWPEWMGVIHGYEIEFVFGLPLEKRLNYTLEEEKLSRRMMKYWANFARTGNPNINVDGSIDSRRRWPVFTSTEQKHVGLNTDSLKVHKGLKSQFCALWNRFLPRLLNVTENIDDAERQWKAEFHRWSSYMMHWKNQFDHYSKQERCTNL
Acetylcholinesterase (Electrophorus electricus), sequence (O42275 24-633 limits assumed): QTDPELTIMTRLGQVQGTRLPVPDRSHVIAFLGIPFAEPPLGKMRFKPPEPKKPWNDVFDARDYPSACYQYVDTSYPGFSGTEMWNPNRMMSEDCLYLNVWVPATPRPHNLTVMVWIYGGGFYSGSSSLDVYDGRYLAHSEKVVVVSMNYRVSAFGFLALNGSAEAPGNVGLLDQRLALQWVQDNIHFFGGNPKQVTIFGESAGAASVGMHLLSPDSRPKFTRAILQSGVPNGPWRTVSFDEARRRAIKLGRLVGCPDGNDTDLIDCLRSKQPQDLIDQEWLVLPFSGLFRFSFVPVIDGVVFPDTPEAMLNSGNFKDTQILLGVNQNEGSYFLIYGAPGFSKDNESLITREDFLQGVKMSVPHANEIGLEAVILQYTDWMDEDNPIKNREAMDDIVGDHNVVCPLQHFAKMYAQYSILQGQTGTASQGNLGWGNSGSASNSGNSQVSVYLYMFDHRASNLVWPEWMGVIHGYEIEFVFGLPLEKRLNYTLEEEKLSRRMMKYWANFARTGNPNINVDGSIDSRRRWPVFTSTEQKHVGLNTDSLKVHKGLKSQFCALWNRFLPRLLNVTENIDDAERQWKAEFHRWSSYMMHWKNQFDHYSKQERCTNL
Cholinesterase (Equus caballus), sequence (P81908 whole entry): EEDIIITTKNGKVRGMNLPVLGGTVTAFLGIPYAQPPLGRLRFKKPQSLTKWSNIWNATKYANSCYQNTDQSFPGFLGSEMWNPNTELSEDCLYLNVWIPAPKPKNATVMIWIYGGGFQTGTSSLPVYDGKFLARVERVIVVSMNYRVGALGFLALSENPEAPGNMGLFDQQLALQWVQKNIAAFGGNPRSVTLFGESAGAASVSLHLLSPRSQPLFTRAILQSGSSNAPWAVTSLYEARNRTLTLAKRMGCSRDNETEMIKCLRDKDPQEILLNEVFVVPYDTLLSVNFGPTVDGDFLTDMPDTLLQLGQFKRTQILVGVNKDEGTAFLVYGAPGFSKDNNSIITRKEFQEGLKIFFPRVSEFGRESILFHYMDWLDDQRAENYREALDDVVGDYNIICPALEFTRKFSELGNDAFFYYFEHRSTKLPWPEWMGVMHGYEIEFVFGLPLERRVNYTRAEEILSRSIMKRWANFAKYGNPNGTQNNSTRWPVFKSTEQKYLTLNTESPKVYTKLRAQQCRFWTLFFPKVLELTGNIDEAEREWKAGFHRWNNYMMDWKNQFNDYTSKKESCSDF
Cholinesterase (Equus caballus, UniProt P81908), sequence (P81908 whole entry): as above

O=C(/C=C/c1ccccc1O)NCCC1CCN(Cc2ccccc2)CC1
IC50 [1]: 0.988 µM | IC50 [2]: 977 µM | IC50 [3]: 2.68 µM | Ratio IC50 [4]: 0.37 | Ratio IC50 [5]: 0.491 | IC50 [6]: 1.06 µM | Activity [7]: Non-toxic | IC50 [8]: 2.16 µM

COc1cc(/C=C/C(=O)CC(=O)NCCC2CCN(Cc3ccccc3)CC2)ccc1O
IC50 [2]: 76.8 µM | Ratio IC50 [5]: 0.415 | IC50 [6]: 1.08 µM | Activity [7]: Non-toxic | IC50 [8]: 2.6 µM

O=C(/C=C/c1ccc(O)cc1)NCCC1CCN(Cc2ccccc2)CC1
IC50 [1]: 0.784 µM | IC50 [2]: 936 µM | IC50 [3]: 2.2 µM | Ratio IC50 [4]: 0.36 | Ratio IC50 [5]: 1.42 | IC50 [6]: 1.24 µM | Activity [7]: Non-toxic | IC50 [8]: 0.874 µM

COc1cc(CCC(=O)NCCC2CCN(Cc3ccccc3)CC2)ccc1O
IC50 [1]: 0.286 µM | IC50 [2]: 48.3 µM | IC50 [3]: 5.32 µM | Ratio IC50 [4]: 0.054 | Activity [9]: Active | Ratio IC50 [5]: 0.588 | IC50 [6]: 4.4 µM | Activity [7]: Non-toxic | IC50 [8]: 7.48 µM

COc1cc(/C=C/C(=O)NCCC2CCN(Cc3ccccc3)CC2)cc(OC)c1O
Activity [10]: Active | Activity [11]: Not Active | IC50 [1]: 1.22 µM | IC50 [2]: 24.9 µM | inhibition [12]: Active | IC50 [3]: 0.321 µM | Activity [13]: Not Active | Activity [14]: Not Active | Ratio IC50 [4]: 3.8 | Activity [9]: Active | Ratio IC50 [5]: 2.2 | IC50 [6]: 0.976 µM | Activity [7]: Non-toxic | Papp at 16 h, 5 mg/mL [15]: 76.8 nm/s | inhibition [16]: Active | IC50 [8]: 0.398 µM

O=C(/C=C/c1ccc(F)cc1)NCCC1CCN(Cc2ccccc2)CC1
IC50 [1]: 7.51 µM | IC50 [3]: 3.3 µM | Ratio IC50 [4]: 2.28 | Ratio IC50 [5]: 2.43 | IC50 [6]: 1.98 µM | Activity [7]: Non-toxic | IC50 [8]: 0.815 µM | inhibition (INH) [17]: Not Active

COc1cc(/C=C/C(=O)NC2CCN(Cc3ccccc3)CC2)cc(OC)c1O
IC50 [2]: 22.3 µM | Ratio IC50 [5]: 0.26 | IC50 [6]: 7.34 µM | Activity [7]: Non-toxic | IC50 [8]: 28.2 µM

O=C(/C=C/c1ccc(Cl)cc1)NCCC1CCN(Cc2ccccc2)CC1
IC50 [1]: 2.07 µM | IC50 [3]: 0.362 µM | Ratio IC50 [4]: 5.72 | Ratio IC50 [5]: 5.32 | IC50 [6]: 2.77 µM | Activity [7]: Toxic | IC50 [8]: 0.521 µM | inhibition (INH) [17]: Not Active

O=C(/C=C/c1ccc(O)c(O)c1)NC1CCN(Cc2ccccc2)CC1
IC50 [2]: 10.6 µM | Activity [9]: Active | Ratio IC50 [5]: 0.241 | IC50 [6]: 15 µM | Activity [7]: Non-toxic | IC50 [8]: 62.1 µM

O=C(/C=C/c1ccc(O)cc1)CC(=O)NC1CCN(Cc2ccccc2)CC1
IC50 [2]: 890 µM | Ratio IC50 [5]: 0.053 | IC50 [6]: 3.1 µM | Activity [7]: Non-toxic | IC50 [8]: 58.3 µM

NCCC1CCN(Cc2ccccc2)CC1
inhibition [18]: inactive | IC50 [8]: 159 µM

COc1cc(/C=C/C(=O)NCCC2CCN(Cc3ccccc3)CC2)ccc1O
IC50 [1]: 1.12 µM | IC50 [2]: 34.1 µM | IC50 [3]: 0.729 µM | Ratio IC50 [4]: 1.54 | Activity [9]: Active | Ratio IC50 [5]: 1.87 | IC50 [6]: 1.22 µM | Activity [7]: Non-toxic | Papp at 16 h, 5 mg/mL [15]: 51.6 nm/s | IC50 [8]: 0.651 µM

COc1cc(/C=C/C(=O)O)ccc1O [FERULATE]
inhibition [19]: inactive | IC50 [2]: 30.6 µM | inhibition [18]: inactive | Ratio IC50 [5]: 4.95

O=C(/C=C/c1ccc(Cl)cc1)NC1CCN(Cc2ccccc2)CC1
Ratio IC50 [5]: 0.759 | IC50 [6]: 51.4 µM | Activity [7]: Non-toxic | IC50 [8]: 67.7 µM | inhibition (INH) [17]: Not Active

O=C(/C=C/c1ccc(O)cc1)NC1CCN(Cc2ccccc2)CC1
IC50 [2]: 980 µM | Ratio IC50 [5]: 2.06 | IC50 [6]: 146 µM | Activity [7]: Non-toxic | IC50 [8]: 70.8 µM

COc1cc(/C=C/C(=O)CC(=O)/C=C/c2ccc(O)c(OC)c2)ccc1O [CURCUMIN]
inhibition [19]: inactive | IC50 [2]: 23.3 µM | inhibition [18]: inactive | Ratio IC50 [5]: 4.43

COc1ccc(/C=C/C(=O)NCCC2CCN(Cc3ccccc3)CC2)cc1OC
IC50 [1]: 2.54 µM | IC50 [3]: 0.526 µM | Ratio IC50 [4]: 4.83 | Ratio IC50 [5]: 5.43 | IC50 [6]: 1.55 µM | Activity [7]: Non-toxic | IC50 [8]: 0.285 µM | inhibition (INH) [17]: Not Active

NC1CCN(Cc2ccccc2)CC1
inhibition [19]: inactive | inhibition [18]: inactive

COc1cc(/C=C/C(=O)NCCC2CCN(Cc3ccccc3)CC2)ccc1OC(C)=O
IC50 [1]: 0.245 µM | IC50 [3]: 0.339 µM | Ratio IC50 [4]: 0.72 | Ratio IC50 [5]: 2.31 | IC50 [6]: 0.67 µM | Activity [7]: Non-toxic | IC50 [8]: 0.29 µM | inhibition (INH) [17]: Not Active

Cc1c(C)c2c(c(C)c1O)CCC(C)(C(=O)O)O2 (stereo not drawn)
Activity [9]: Active

COc1cc(/C=C/C(=O)NC2CCN(Cc3ccccc3)CC2)ccc1OC(C)=O
Ratio IC50 [5]: 0.786 | IC50 [6]: 17.3 µM | Activity [7]: Non-toxic | IC50 [8]: 22 µM | inhibition (INH) [17]: Not Active

O=C(/C=C/c1ccc(O)c(O)c1)NCCC1CCN(Cc2ccccc2)CC1
IC50 [1]: 145 µM | IC50 [2]: 10.7 µM | IC50 [3]: 1.45 µM | Ratio IC50 [4]: 100 | Activity [9]: Active | Ratio IC50 [5]: 31.9 | IC50 [6]: 165 µM | Activity [7]: Non-toxic | Papp at 16 h, 5 mg/mL [15]: 53.8 nm/s | IC50 [8]: 5.17 µM

O=C(/C=C/c1ccc([N+](=O)[O-])cc1)NC1CCN(Cc2ccccc2)CC1
Ratio IC50 [5]: 1.26 | IC50 [6]: 9.01 µM | Activity [7]: Non-toxic | IC50 [8]: 7.12 µM | inhibition (INH) [17]: Not Active

COc1cc(/C=C/C(=O)NCCC2CCN(Cc3ccccc3)CC2)cc(OC)c1OC
IC50 [1]: 0.669 µM | IC50 [3]: 0.234 µM | Ratio IC50 [4]: 2.86 | Ratio IC50 [5]: 3.2 | IC50 [6]: 0.416 µM | Activity [7]: Non-toxic | Papp at 16 h, 5 mg/mL [15]: 74.3 nm/s | IC50 [8]: 0.13 µM | inhibition (INH) [17]: Not Active

COc1cccc(/C=C/C(=O)NCCC2CCN(Cc3ccccc3)CC2)c1
IC50 [1]: 1.44 µM | IC50 [3]: 0.69 µM | Ratio IC50 [4]: 2.09 | Ratio IC50 [5]: 0.642 | IC50 [6]: 0.244 µM | Activity [7]: Non-toxic | IC50 [8]: 0.383 µM | inhibition (INH) [17]: Not Active

COc1cc(/C=C/C(=O)NC2CCN(Cc3ccccc3)CC2)cc(OC)c1OC
Ratio IC50 [5]: 0.038 | IC50 [6]: 1.25 µM | Activity [7]: Non-toxic | IC50 [8]: 31.6 µM | inhibition (INH) [17]: Not Active

O=C(/C=C/c1ccc(F)cc1)NC1CCN(Cc2ccccc2)CC1
Ratio IC50 [5]: 1.53 | IC50 [6]: 90.8 µM | Activity [7]: Non-toxic | IC50 [8]: 59.3 µM | inhibition (INH) [17]: Not Active

O=C(/C=C/c1ccc([N+](=O)[O-])cc1)NCCC1CCN(Cc2ccccc2)CC1
IC50 [1]: 4.23 µM | IC50 [3]: 0.337 µM | Ratio IC50 [4]: 12.5 | Ratio IC50 [5]: 6.98 | IC50 [6]: 3.1 µM | Activity [7]: Non-toxic | IC50 [8]: 0.444 µM | inhibition (INH) [17]: Not Active

O=C(/C=C/c1ccccc1)NCCC1CCN(Cc2ccccc2)CC1
IC50 [1]: 1.41 µM | IC50 [3]: 0.411 µM | Ratio IC50 [4]: 3.43 | Ratio IC50 [5]: 0.718 | IC50 [6]: 0.39 µM | Activity [7]: Non-toxic | IC50 [8]: 0.543 µM | inhibition (INH) [17]: Not Active

COc1ccc(/C=C/C(=O)NCCC2CCN(Cc3ccccc3)CC2)cc1O
IC50 [1]: 3.24 µM | IC50 [2]: 764 µM | IC50 [3]: 1.66 µM | Ratio IC50 [4]: 1.95 | Ratio IC50 [5]: 2.33 | IC50 [6]: 2.47 µM | Activity [7]: Non-toxic | IC50 [8]: 1.06 µM

COc1cc(/C=C/C(=O)CC(=O)NC2CCN(Cc3ccccc3)CC2)ccc1O
IC50 [2]: 88.7 µM | Ratio IC50 [5]: 1.99 | IC50 [6]: 53.2 µM | Activity [7]: Non-toxic | IC50 [8]: 26.3 µM

COc1cc(CCC(=O)NC2CCN(Cc3ccccc3)CC2)ccc1O
IC50 [2]: 55.1 µM | Ratio IC50 [5]: 0.949 | IC50 [6]: 31.9 µM | Activity [7]: Non-toxic | IC50 [8]: 33.6 µM

COc1cc(/C=C/C(=O)NC2CCN(Cc3ccccc3)CC2)ccc1O
IC50 [2]: 32.5 µM | Ratio IC50 [5]: 1.68 | IC50 [6]: 49.2 µM | Activity [7]: Non-toxic | IC50 [8]: 29.3 µM
